Patent publication US6127519A, “Calcitonin derivatives” (Tsumura & Co., priority 1990, dated 2000)
Bridge positions count the residues as written; N and C are the ends. Square brackets hold non-standard residues; d marks the D form. Peptide text beside a SMILES is read from it. Orn = NCCC[C@H](N)C(=O)O

System: calcium concentration in the serum
Assay: Test 1: reduction of calcium level in serum after tail vein administration to rats
Assay type: in vivo, rats of the Wistar strain
Conditions: 1 ml/kg tail vein, female Wistar rats
Summary of the method: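 Female Wistar rats, six weeks old, were assigned in groups of 4 and given the test peptides through the tail vein at 1 ml/kg. The peptides were dissolved in 1% aqueous sodium acetate (pH 4,0) containing 0.1% BSA. Blood (0.3 ml) was drawn from the neck vein immediately before dosing and at set times afterward. Serum was separated by centrifuging at 3500 rpm for 20 minutes. Calcium was measured on a TBA-380 analyzer with a Wako o-cpc kit, and the percentage reduction in serum calcium was calculated.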

[1] = concentration 83 ng/ml, 0 hour (just before administration)
[2] = concentration 83 ng/ml, 2 hours
[3] = concentration 83 ng/ml, 4 hours
[4] = concentration 83 ng/ml, 6 hours
[5] = concentration 830 ng/ml, 0 hour (just before administration)
[6] = concentration 830 ng/ml, 1 hour
[7] = concentration 830 ng/ml, 2 hours
[8] = concentration 830 ng/ml, 4 hours
[9] = concentration 830 ng/ml, 6 hours

Structure (SMILES)	Serum calcium level as percent of pre-dose baseline [1]	Serum calcium level as percent of pre-dose baseline (concentration 83 ng/ml, 1 hour)	Serum calcium level as percent of pre-dose baseline [2]	Serum calcium level as percent of pre-dose baseline [3]	Serum calcium level as percent of pre-dose baseline [4]	Serum calcium level as percent of pre-dose baseline [5]	Serum calcium level as percent of pre-dose baseline [6]	Serum calcium level as percent of pre-dose baseline [7]	Serum calcium level as percent of pre-dose baseline [8]	Serum calcium level as percent of pre-dose baseline [9]
CC[C@H](C)[C@H](NC(=O)[C@H](C)NC(=O)[C@@H](NC(=O)[C@H](CCC(N)=O)NC(=O)[C@@H]1CCCN1C(=O)[C@H](Cc1ccc(O)cc1)NC(=O)[C@@H](NC(=O)[C@H](CCC(N)=O)NC(=O)[C@H](CC(C)C)NC(=O)[C@H](CCCCN)NC(=O)[C@H](Cc1c[nH]cn1)NC(=O)[C@H](CC(C)C)NC(=O)[C@H](CCC(=O)O)NC(=O)[C@H](CCC(N)=O)NC(=O)[C@H](CO)NC(=O)[C@H](CC(C)C)NC(=O)[C@H](CCCCN)NC(=O)CNC(=O)[C@H](CC(C)C)NC(=O)[C@H](CCSC)NC(=O)[C@@H]1CC(=O)NCCCC[C@H](N)C(=O)N[C@@H](CC(N)=O)C(=O)N[C@@H](CC(C)C)C(=O)N[C@@H](CO)C(=O)N[C@@H]([C@@H](C)O)C(=O)N1)[C@@H](C)O)[C@@H](C)O)C(=O)NCC(=O)N[C@H](C(=O)NCC(=O)N[C@@H](C)C(=O)N1CCC[C@H]1C(N)=O)C(C)C [Peptide No. 27] (H-KNLSTDMLGKLSQELHKLQTYPQTAIGVGAP-NH2; lactam 1-6)	100.0%	93.5%	94.3%	86.4%	82.7%	100.0%	79.5%	94.1%	87.0%	82.9%
CC[C@H](C)[C@H](NC(=O)[C@H](C)NC(=O)[C@@H](NC(=O)[C@H](CCC(N)=O)NC(=O)[C@@H]1CCCN1C(=O)[C@H](Cc1ccc(O)cc1)NC(=O)[C@@H](NC(=O)[C@H](CCC(N)=O)NC(=O)[C@H](CC(C)C)NC(=O)[C@H](CCCCN)NC(=O)[C@H](Cc1c[nH]cn1)NC(=O)[C@H](CC(C)C)NC(=O)[C@H](CCC(=O)O)NC(=O)[C@H](CCC(N)=O)NC(=O)[C@H](CO)NC(=O)[C@H](CC(C)C)NC(=O)[C@H](CCCCN)NC(=O)CNC(=O)[C@H](CC(C)C)NC(=O)[C@H](CC(C)C)NC(=O)[C@@H]1CC(=O)NCCCC[C@H](N)C(=O)N[C@@H](CC(N)=O)C(=O)N[C@@H](CC(C)C)C(=O)N[C@@H](CO)C(=O)N[C@@H]([C@@H](C)O)C(=O)N1)[C@@H](C)O)[C@@H](C)O)C(=O)NCC(=O)N[C@H](C(=O)NCC(=O)N[C@@H](C)C(=O)N1CCC[C@H]1C(N)=O)C(C)C [Peptide No. 28] (H-KNLSTDLLGKLSQELHKLQTYPQTAIGVGAP-NH2; lactam 1-6)	100.0%	83.7%	87.7%	82.6%	80.8%	100.0%	73.5%	87.2%	83.8%	81.6%
CC[C@H](C)[C@H](NC(=O)[C@H](C)NC(=O)[C@@H](NC(=O)[C@H](CCC(N)=O)NC(=O)[C@@H]1CCCN1C(=O)[C@H](Cc1ccc(O)cc1)NC(=O)[C@@H](NC(=O)[C@H](CCC(N)=O)NC(=O)[C@H](CC(C)C)NC(=O)[C@H](CCCCN)NC(=O)[C@H](Cc1c[nH]cn1)NC(=O)[C@H](CC(C)C)NC(=O)[C@H](CCC(=O)O)NC(=O)[C@H](CCC(N)=O)NC(=O)[C@H](CO)NC(=O)[C@H](CC(C)C)NC(=O)[C@H](CCCCN)NC(=O)CNC(=O)[C@H](CC(C)C)NC(=O)[C@H](CC(C)C)NC(=O)[C@@H]1CCCNC(=O)CC[C@H](N)C(=O)N[C@@H](CC(N)=O)C(=O)N[C@@H](CC(C)C)C(=O)N[C@@H](CO)C(=O)N[C@@H]([C@@H](C)O)C(=O)N1)[C@@H](C)O)[C@@H](C)O)C(=O)NCC(=O)N[C@H](C(=O)NCC(=O)N[C@@H](C)C(=O)N1CCC[C@H]1C(N)=O)C(C)C [Peptide No. 29] (H-ENLST[Orn]LLGKLSQELHKLQTYPQTAIGVGAP-NH2; lactam 1-6)	100.0%	84.6%	91.7%	83.2%	76.6%	100.0%	75.0%	84.7%	78.0%	73.1%
CC[C@H](C)[C@H](NC(=O)[C@H](C)NC(=O)[C@@H](NC(=O)[C@H](CCC(N)=O)NC(=O)[C@@H]1CCCN1C(=O)[C@H](Cc1ccc(O)cc1)NC(=O)[C@@H](NC(=O)[C@H](CCC(N)=O)NC(=O)[C@H](CC(C)C)NC(=O)[C@H](CCCCN)NC(=O)[C@H](Cc1c[nH]cn1)NC(=O)[C@H](CC(C)C)NC(=O)[C@H](CCC(=O)O)NC(=O)[C@H](CCC(N)=O)NC(=O)[C@H](CO)NC(=O)[C@H](CC(C)C)NC(=O)[C@H](CCCCN)NC(=O)CNC(=O)[C@H](CC(C)C)NC(=O)[C@H](CC(C)C)NC(=O)[C@@H]1CCC(=O)NCCC[C@H](N)C(=O)N[C@@H](CC(N)=O)C(=O)N[C@@H](CC(C)C)C(=O)N[C@@H](CO)C(=O)N[C@@H]([C@@H](C)O)C(=O)N1)[C@@H](C)O)[C@@H](C)O)C(=O)NCC(=O)N[C@H](C(=O)NCC(=O)N[C@@H](C)C(=O)N1CCC[C@H]1C(N)=O)C(C)C [Peptide No. 30] (H-[Orn]NLSTELLGKLSQELHKLQTYPQTAIGVGAP-NH2; lactam 1-6)	100.0%	77.2%	80.7%	83.2%	77.7%	100.0%	74.0%	63.8%	65.4%	73.9%
